These are literature values, as cited in patent US20220354770A1, “METHOD FOR DYEING KERATINOUS MATERIAL BY MEANS OF A PREMIX OF AMINOSILICONE AND A CHROMOPHORIC COMPOUND” (Henkel AG & Co. KGaA, priority 2019, published 2022).

The structures appear in SMILES notation.

For this series the following is noted: 25° C.

For the compound `O=S(=O)([O-])c1ccc(N=Nc2c(O)ccc3ccccc23)cc1.[Na+]` [Acid Orange 7, sodium salt of 4-[(2-hydroxy-1-naphthyl)azo]benzene sulphonate], the solubility in water entry is reported as “more than 7 g/L”.

In the case of `Nc1cc(S(=O)(=O)[O-])cc2cc(S(=O)(=O)[O-])c(N=Nc3ccccc3)c(O)c12.[Na+].[Na+]` [Acid Red 33, diantrium salt of 5-amino-4-hydroxy-3-(phenylazo)-naphthalene-2,7-disulphonate], the solubility in water is 2500 µg/mL.

Turning to `O=C([O-])c1c(Cl)c(Cl)c(Cl)c(Cl)c1-c1c2c(Br)cc(=O)c(Br)c-2oc2c(Br)c(O)cc(Br)c12.O=C([O-])c1c(Cl)c(Cl)c(Cl)c(Cl)c1-c1c2c(Br)cc(=O)c(Br)c-2oc2c(Br)c(O)cc(Br)c12.[Na+].[Na+]` [Acid Red 92, disodium salt of 3,4,5,6-tetrachloro-2-(1,4,5,8-tetrabromo-6-hydroxy-3-oxoxanthen-9-yl)benzoic acid], the solubility in water entry is given as “greater than 10 g/L”.

Consider `O=C([O-])C1=NN(c2ccc(S(=O)(=O)[O-])cc2)C(=O)C1N=Nc1ccc(S(=O)(=O)[O-])cc1.[Na+].[Na+].[Na+]` (stereo not shown) [Acid Yellow 23, trisodium salt of 4,5-dihydro-5-oxo-1-(4-sulfophenyl)-4-((4-sulfophenyl)azo)-1H-pyrazole-3-carboxylic acid], for which the “solubility in water” value is recorded as “highly soluble”.
